Measured values taken from patent publication EP1201237A1, “Composition comprising an amide or a dialkylsulphoxide derivative for the treatment of cancer” (Virodene Pharmaceutical Holdings (PTY) Ltd., priority 2000, dated 2002).
Like-named read-outs stand apart in the source and are kept apart here.

Tests used:
[1] = Single dose study of disposition, safety, tolerability and pharmacokinetics of virodene P058 in healthy volunteers; type: in vivo; details: 7,06 g of DMF transdermally once a week for 8 hours, human subjects
Text: A draft interim clinical safety report produced by Guy's Drug Research Unit of Kings College and St Thomas' Hospitals' Medical and Dental School is set out below.
A single dose study of the disposition, safety, tolerability and pharmacokinetics of virodene P058 in healthy volunteers.
• ° 5 subjects dosed on day 1 (subjects 001 - 005) • ° 5 subjects dosed on day 14 (subjects 006 - 010) • ° No withdrawals • ° Final follow up for subjects 001 - 005 occurred on day 15 • ° Final follow up for subjects 006 - 010 due on day 28 Table 1.1 -
The first patch was applied at 10h00 on day 1 for subjects 001 - 005 and at 09h20 on […] for subjects 006 - 010 with 10 minute intervals between dosing.
• ° Laboratory Safety Values: No clinically significant changes observed for biochemistry, liver function tests, haematology or coagulation parameters. • ° Vital Signs - There were no obvious clinically significant changes observed • ° Continuous lead [I monitoring - No clinically significant changes observed] • ° 12 kead ECG - No clinically significant changes observed • ° Adverse events are reported in Table 1.2

[2] = test system: metastasised fourth stage breast cancer; assay: Example 1: skin patch treatment of a breast cancer patient; type: in vivo, human
Text: The patient was a person suffering from metastasised fourth stage breast cancer. The primary cancer was in the left breast and had spread to the right breast. The patient had auxiliary left and right swollen lymph glands under both arms, swelling of lymph glands under the chin and a secondary tumour near the crown of the head protruding from the skull which was four fingertips across. The patient was dehydrated and unable to keep down food or water.
A skin patch was applied to the skin adjacent the tumour for six hours. […] The gel served to prevent leakage of liquid DMF from the patches.
Each patch was applied for a period of 6 hours, on alternate days for one week followed by a one week break.

[3] = DMF level in the patient's blood during patch treatment; type: in vivo, human; details: patches of about 7,064 g DMF
Experimental: For a patient weighing about 60 kg, an amount of about 14 g over a period of 12 hours is required to produce a level of 100 ppm. […] Absorption capability varies from patient to patient depending on factors such as skin-type and skin thickness.
Daily full clinical and psychological evaluations were also conducted.

Mama Carcinoma = assay: Example 2: skin patch treatment of a patient with Mama Carcinoma; type: in vivo, human; details: three weekly treatments, 7.04g patches for 4 hours
Karposi Sarcoma = assay: Example 3: skin patch treatment of an AIDS patient with Karposi Sarcoma; type: in vivo, human
Text: A third patient was a person suffering from full blown AIDS. The patient had seven tumours which were diagnosed as Karposi Sarcoma.

non-Hodgkins Lymphoma = assay: Example 4: skin patch treatment of a patient with non-Hodgkins Lymphoma; type: in vivo, human
Text: A fourth patient was an adult diagnosed with non-Hodgkins Lymphoma. The patient had not been on chemotherapy and was HIV positive.

DNA sequences = assay: In-vitro studies in cell cultures: effect on DNA; type: cell-based
Text: (§1) Instead of a piling pattern, mono layers of cells in regular parallel orientation formed that were typical of non-malignant fibroblasts. […] Focal Adhesion Kinase (FAK) is activated in response to receptor activation at focal adhesion sites. FAK is a substrate for the oncogenic forms of the src-family of tyrosine kinases. The action of polar agents on oncogenic expression is believed to be the induction of cancer cells to become more benign. It would seem reasonable that to convert a malignant cell to a benign phenotype, there should be some modulation of gene expression causing malignancy in the first place. In the HL-60 human promyelocytic leukemia cells, dimethylsulfoxide (DMSO) reduced the expression of c-myc oncogenes by 80 to 90%. Some brain tumours are regulated by glial-binding growth factors such as Epidermal Growth Factor (EGF) and Platelet Derived Growth Factor (PDGF) both of which are related to oncogenes. The PDGF β-chain gene is the cellular homologue and proto-oncogene of the viral […] oncogene. Cell maturation induced by polar agents (N-MF) as single agents is most likely to be effective in Neuroblastoma and Glioblastoma (as well as leukemia and melanoma). Polar agents easily penetrate the blood brain barrier and sensitize tumour cells to both X-radiation and cis-platinum. […]

myc onco-proteins = assay: In-vitro studies in cell cultures: myc expression; type: cell-based
Text: as §1

[4] = test system: virus transformed mice kidney cell-lines; assay: Growth pattern of virus transformed kidney cell-lines; type: cell-based; details: growth medium supplemented by 0.5% DMF
Text: as §1

[5] = test system: HOC-7 ovarian adenocarcinoma cells; assay: Immunocytochemistry of HOC-7 cells; type: cell-based, human
Text: (§2) (HOC-7) to a malignant cell. This was also found in human colon carcinoma. (Factor - beta 1 is growth factor, that can be up regulated or transformed in human cells.)
(§3) Exposure of HOC-7 ovarian adenocarcinoma cells to regulators of cell differentiation caused inducer-dependent alterations of the antigenic pattern of the cells. […] Stimulation of fibronectin was also seen after addition of transforming growth factor (TGF) - beta 1. […] CA 125, Fibronectin, and desmoplakins I and II. TGF - beta 1 stimulated fibronectin and desmoplakins I and II only.

[6] = test system: HOC-7 ovarian adenocarcinoma cells; assay: ELISA of antigen expression in HOC-7 cells; type: cell-based, human
Text: as §2, §3

HOC-7 cells = assay: Immunophenotype and growth of HOC-7 cells; type: cell-based, human
Text: Production of EGF and TGF - alpha was not affected by these inducers. Immunocytochemistry. […] The expression of myconcoproteins was inversely related to cell proliferation CA 125, however, seems to be unrelated to cell growth.

[7] = test system: chemistry transformed fibroblasts; assay: Phenotype of chemically transformed fibroblasts; type: cell-based
EGF-transfected cells = assay: Properties of EGF-transfected FR3T3 fibroblasts; type: cell-based
ras-transfected cells = assay: Properties of ras-transfected FR3T3 fibroblasts; type: cell-based
Text: (§4) The high proliferation rate of the ras-3 cells was associated with elevated expression of protein B23. The 19-3 cells. But not the ras-3 cells, expressed cell surface fibronectin.

FR3T3 fibroblasts = assay: EGF binding and EGF secretion in transfected FR3T3 lines and control cells; type: cell-based
Text: as §4

Tyrosine Kinase = Tyrosine Kinase Assay kit (non-radioactive # 1534505, Boehringer Mannheim); type: biochemical; details: values only in Appendix images
Text: The results are set out in the Appendix below. [formula] [formula]

[8] = Toxicity of DMF by route of administration; type: in vivo; details: subcutaneous versus oral
[9] = in vivo; cited from earlier work
[10] = several 90-day studies; cited from earlier work
[11] = oral study; cited from earlier work
[12] = inhalation study with rabbits; cited from earlier work
c-myc oncogenes = assay: c-myc expression in HL-60 cells; type: cell-based; details: HL-60 human promyelocytic leukemia cells
Text: as §1

With `CN(C)C=O` [DMF, dimethylformamide] the liver enzymes [1] was “does not result in raised liver enzymes”, the serious adverse events [1] was “no serious adverse events” and the toxicity [1] was “non-toxic”. For the same molecule, the “temperature of the tumour” value ([2]; during patch treatment) was “dropped to normal”, the “tumour reduced in size” value ([2]; patches 6 hours on alternate days for one week, then one week break) was 1 - 2 mm per week and the “patient's appetite” value ([2]; three days after the treatment began) was “appetite returned”. The tumour diameter ([2]; two days after first 6 hour patch, 32 cm before treatment) was 29,5 cm, the tumour circumference ([2]; two days after first 6 hour patch, 52 cm before treatment) was 51 cm and the “DMF blood level obtained” value ([3]; after loss by evaporation) was 100 ppm. The “DMF blood level delivered in theory” value ([3]; theoretical) was 125 - 135 ppm, the bleeding (Mama Carcinoma) was “bleeding disappeared” and the pain (Mama Carcinoma) was “less pain”. For the same molecule, the “tumour shrunk in diameter” value (Mama Carcinoma; 3 weeks, 53 cm before treatment) was 7 cm, the recurrence of tumours (Karposi Sarcoma; after 18 months) was “no tumours had recurred” and the tumours (Karposi Sarcoma; after six treatments) was “disappeared”. The tumours (Karposi Sarcoma; after two weekly treatments, 7.04g patches for 8 hours, seven tumours) was “faded”, the cancer (non-Hodgkins Lymphoma; after eight treatments, 7.04g patches for 8 hours, 8 weeks) was “disappeared” and the recurrence of cancer (non-Hodgkins Lymphoma; eight months later) was “had not recurred”. For the same molecule, the “effect on DNA sequences” value (DNA sequences) was “conformational changes and hypomethylation”, the “expression of myc onco-proteins” value (myc onco-proteins) was “inhibited” and the “random piling, non-contact-inhibited growth pattern” value [4] was “marked alteration”. The “cytoplasmic and surface labeling for CA 125 and disposition of fibronectin into the extracellular matrix” value [5] was “stimulated”, the “membrane staining for epidermal growth factor (EGF) receptor and for desmoplakins I and II” value [5] was “elevated” and the “expression of EGF - receptor, CA 125, Fibronectin, and desmoplakins I and II” value [6] was “dose dependently induced”. For the same molecule, the cell growth (HOC-7 cells; HOC-7 cells) was “growth inhibition”, the “effectiveness in changing the immunophenotype of HOC-7 cells” value (HOC-7 cells; compared with TGF-beta 1) was “more effective” and the “phenotype of transformed fibroblasts” value [7] was “restoration of a nontransformed phenotype”. The anchorage-independent growth (EGF-transfected cells) was “inhibition”, the “normal cellular morphology and growth rate in monolayer culture” value (EGF-transfected cells) was “restoration” and the “proliferation-associated nucleolar protein B23” value (EGF-transfected cells) was “down-regulation”. For the same molecule, the fibronectin expression (ras-transfected cells; ras-3 cells) was “did not restore”, the “growth in monolayer culture or under anchorage-independent growth conditions” value (ras-transfected cells; ras-transfected cells, compared with EGF-transfected cells) was “much slighter effect” and the “secretion of EGF” value (FR3T3 fibroblasts; 2 transfected lines as well as control cells) was “increased”. The EGF binding (FR3T3 fibroblasts; transfected cell lines) was “in neither case did DMF alter”, the “effect of DMF on PTK” value (Tyrosine Kinase) was “Tyrosine Kinase inhibitor” and the “toxicity, subcutaneously as compared with oral administration” value [8] was 5 - 10 times lower. For the same molecule, the “acute dermal, oral and inhalation toxicity” value [9] was “low”, the “NOAEL (No-Adverse-observed-Effect-Level)” value [10] was “could not be established” and the “NOAEL for developmental effects” value [11] was 44 mg/kg body weight. The “NOAEL for developmental effects” value [12] was 150 mg/m^3.
With `C[S+](C)[O-]` [DMSO, dimethylsulfoxide] the “reduced expression of c-myc oncogenes” value (c-myc oncogenes) was 80 to 90%.
